# Entries after “also recorded” stand apart in the source; their conditions may differ.
# Assays:
# [1] = system: primary hippocampal neurons; assay: qPCR mRNA expression in primary hippocampal neurons treated with ketamine or HNKet; assay type: cell-based, mouse; conditions: 10 μM
# Description: Primary hippocampal neurons were generated from E16.5 embryos using a standard primary neuron cell culture protocol previously described [K. G. Schraut et al., Eur JNeurosci (2021) 53: 390-401]. Briefly, dissected hippocampi were harvested in ice-cold dissection medium (HBSS, 7 mM HEPES, 2 mM L-glutamine, 500 U/ml penicillin-streptomycin, all Thermo Fisher Scientific). The tissue was incubated for 10 minutes in 0.25% Trypsin-EDTA with 8 mM HEPES (Thermo Fisher Scientific) in a water bath at 37° C. Tissue was washed three times with serum medium (DMEM, 10% FBS, Thermo Fisher Scientific). The cells were dissociated by titration using glass Pasteur pipets 10 in serum medium and filtered with a 70 tm cell strainer (Corning). Cell culture plates were coated overnight with 0.05 mg/ml poly-D-lysine mol wt 70,000-150,000 (Sigma Aldrich) in 0.15 M borate buffer (pH=8.5). Cells were seeded in 24-well plates at a density of 5×10^4 cells in 1 ml growth medium (Neurobasal A medium, 1 x B27 supplement, 0.25×GlutaMAX, all Thermo Fisher Scientific) per well. All cultures were kept in a humidified incubator at 37° C. and 5% CO2. Growth medium was renewed after 7 days of culture. For all experiments, mature twenty-one-day old primary neuronal cultures were used.
# Primary hippocampal neurons were generated from E16.5 embryos and cultured for 21 days, as described above (see Primary Cell Culture). For experiment 1 (FIGS. 3A-K), neurons were treated with a saline solution, (R,S)-ketamine (10 μM) (Ketaset, Zoetis, Germany) or (2R,6R)-HNKet (10 μM) (Sigma, Cat #SML1873-25MG) for 0, 2, 12, 24 or 48 hours and compared to untreated controls. For experiment 2 (FIGS. 6A-D), neurons were stimulated with either a saline solution, (2R,6R)-HNKet (10 μM), or a combination of (2R,6R)-HNKet (10 μM) plus nifedipine (10 μM) (Tocris Bioscience, Cat #1075), W-7 hydrochloride (10 μM) (Tocris, Cat #0369), or cyclosporine-A (1 μM) (Tocris, Cat #1101) for 30 minutes, 1, 2, or 6 hours, and compared to untreated controls.
# Ketamine treatment regulates Kcnq2 in primary hippocampal neurons To corroborate the previous findings in glutamatergic neurons, it was next examined whether treatment of primary hippocampal neurons with either (R,S)-ketamine or its active metabolite, (2R,6R)-hydroxynorketamine (HNKet), could modify the mRNA expression of the 8 genes tested earlier in glutamatergic neurons. Mouse primary hippocampal neurons are mostly made up of glutamatergic neurons and therefore make a very good model system to further validate the previous in vivo findings. […]
# Kcnq2 mRNA = Kcnq2 mRNA (qPCR) in the vHipp of CSDS mice, FACS-sorted cells and bulk; conditions: ketamine vs saline
# CD-1 mice = assay: Social Box (SB) behavioral response, ketamine response score P-KET (PLS-DA); assay type: in vivo, mouse
# [2] = system: Kcnq2 mRNA in glutamatergic neurons of the vHipp; assay: qPCR mRNA levels in FACS-sorted glutamatergic neurons (Ai9+/tdTomato+) and remaining cells (Ai9-/tdTomato-) of Nex-Cre-Ai9 mice; assay type: in vivo, mouse; conditions: for mRNA levels of 8 top DEGs: ketamine vs saline
# Excerpt: Conditional transgenic mice expressing tdTomato in glutamatergic neurons of the forebrain (Nex-Cre;Ai9) were generated by crossing homozygous Nex-Cre mice [described in S. Goebbels et al., Genesis (2006) 44: 611-621] with homozygous Ai9 mice [Gt(ROSA)26Sortm9(CAG-tdTomato)Hze] [described in L. Madisen et al., Nat Neurosci (2010) 13: 133-140].
# In order to further investigate these findings, a conditional reporter mouse line (Nex-Cre-Ai9) was generated where most glutamatergic neurons of the forebrain, including the hippocampus, are fluorescently labeled by tdTomato (Ai9) except for neurons in the dentate gyrus where Neurod6, the promoter used to target glutamatergic neurons driving Cre expression, is not expressed (FIG. 12) [J. Hartmann et al., Mol Psychiatry (2017) 22: 466-475]. Following the same paradigm used in the original cohort, mice were group-housed and injected with (R,S)-ketamine (10 mg/kg BW) or a saline vehicle control. The vHipp of these mice was dissected […] later (i.e. 2 days). Single-cell suspensions were prepared and individual cells were sorted using fluorescence activated cell sorting (FACS) (FIG. 2A) into two separate pools of cells from each mouse. One pool contained glutamatergic neurons (Ai9+) and a second contained all remaining cell types of the vHipp (Ai9-) (FIG. 2A and FIGS. 13A-C). […] These two separate pools of cells were then used to validate the scRNA-seq findings in glutamatergic neurons at the population level using quantitative real-time polymerase chain reaction (qPCR).
# Next, it was tested whether retigabine can produce similar synergistic effects in combination with traditional antidepressants.
# [3] = system: treatment-resistant patients; conditions: single sub-anesthetic dose; cited from earlier work
compound,measurement,setting,value
"CNC1(c2ccccc2Cl)CCCCC1=O (racemic) [ketamine, (R,S)-ketamine]","mRNA expression of Hspa8, Snap25, Hsp90ab1, Ndufa4, Ilf2, E2f1 and Kcnq2","[1]; 2, 12, 24 or 48 hours",significant changes
same,Kcnq2 mRNA expression,"[1]; 2, 12, 24 or 48 hours vs untreated and saline controls",significant upregulation at all time points tested
same,Kcnq2 mRNA expression,Kcnq2 mRNA; bulk mRNA,no significant increase of Kcnq2 mRNA
same,Kcnq2 mRNA expression,Kcnq2 mRNA; glutamatergic neurons (tdTomato+),significantly increased to baseline levels
same,Kcnq2 mRNA expression,Kcnq2 mRNA; tdTomato negative cells,no significant differences
same,response to ketamine (P-KET) in the SB vs saline,CD-1 mice; ketamine 10 mg/kg,significant difference
same,SB behavioral readouts (PLSDA classifier),CD-1 mice; ketamine 10 mg/kg/BW i.p.,spent more time exploring in an open area of the SB arena; also recorded: more social and anxiolytic behaviors
same,Kcnq2 mRNA fold change (FC) after ketamine treatment,"[2]; Ai9+ cells, ketamine 10 mg/kg BW vs saline, 36 hours, p<0.001",2.2
same,mRNA levels of 8 top DEGs,[2]; Ai9+ cells,significantly dysregulated
same,mRNA levels of 8 top DEGs,[2]; Ai9- cells,No significant differences
same,mRNA expression of Kcnq3 after ketamine treatment,"[2]; any of the experiments: scRNA-seq, FACS-sorted cells, primary neurons (Table 2B, FIGS. 17A-C)",no significant differences
same,Kcnq2 mRNA,"[2]; glutamatergic neurons (tdTomato+) of the vHipp, two days after treatment, ketamine 10, escitalopram 10, retigabine 1 mg/kg/BW",significant increase of Kcnq2 mRNA
same,"total number of Ai9+ sorted cells, ketamine vs saline","[2]; ketamine 10 mg/kg BW, 36 hours",No significant differences
same,duration of antidepressant response,[3],up to 7 days
same,onset of antidepressant response,[3],within hours
